Experimental data reported in patent publication US20140142000A1, “MICROFLUIDIC ARRAY PLATFORM FOR SIMULTANEOUS CELL CULTURE UNDER OXYGEN TENSIONS” (Academia Sinica, priority 2012, published 2014).

Assays:
in vitro = format: cell-based; details: human
Method: To examine the performance of the array on a chip form for cell culture, carcinomic human alveolar basal epithelial cells (A549, ATCC, Manassas, Va., USA) were utilized. A549 cells were cultured in F-12K medium (Gibco 21127, Invitrogen Co., Carlsbad, Calif., USA) with 10% v/v fetal bovine serum (FBS) (Gibco 10082, Invitrogen Carlsbad, Calif., USA) and 1% v/v antibiotic-antimycotic (Gibco 15240, Invitrogen, Carlsbad, Calif., USA). The stocks were maintained under 5% CO2 in T25 cell culture flasks (Nunc 156367, Thermo Scientific Inc., Rochester, N.Y., USA), and passaged by dissociation with 0.25% trypsin-EDTA (Gibco 25200, Invitrogen, Carlsbad, Calif., USA). […]
For oxygen scavenging, pyrogallol (benzene-1,2,3-triol, C6H6O3) (87-66-1, Alfa Aesar, Ward Hill, Mass., USA) and sodium hydroxide (NaOH) (30620, Sigma-Aldrich, St Louis, Mo., USA) were introduced into the microfluidic channels to control oxygen tensions. The oxygen tensions in the cell culture wells were calibrated by measuring the relative fluorescence lifetime of an oxygen sensitive fluorescence dye, tris(2,2′-bypyridyl) ruthenium […] chloride (50525-27-4, Acros Organics, Geel, Belgium), while flowing chemicals in the underneath channels with various concentrations using the experimental setup as shown in FIG. 2(a). […]

A549 cells [1] = experiment: PrestoBlue normalized cell viability of A549 cells treated with TPZ under various oxygen tensions on the array platform (48 hours); format: cell-based, human
Method: In the experiments, 1 M NaOH and pyrogallol solutions with concentrations of 0, 190, and 500 μg ml^−1 at flow rates of 20 μml^−1 were used to set the oxygen tensions inside the cell culture wells as normoxia (˜20%), 7.0%, and 1.4%, respectively, and the drug, TPZ, with concentrations of 0, 10, 25, 50, and 100 mM were applied. The cells were cultured under different conditions, including: 20% oxygen and 0 mM TPZ; 20% oxygen and 50 mM TPZ; and 1.4% oxygen and 50 mM TPZ, for 48 hours. […] Furthermore, the cell viability was checked using a live/dead stain solution containing calcein AM (1 mM) and ethidium homodimer-1 (2 mM) from LIVE/DEAD Viability/Cytotoxicity Kit (L3224, Invitrogen). […] To quantitatively characterize the cell viabilities of A549 cells treated with TPZ under various oxygen tensions, the PrestoBlue cell viability assays were performed in the experiments. […] In order to minimize variations between the experiments, the measured fluorescence intensity from each well was normalized to the average intensity of the cell culture wells, in which the cells were cultured under normoixa without TPZ (i.e. 0 mM TPZ). To compare the differences between the normalized cell viabilities for various oxygen tensions, statistical analysis, unpaired, two-tailed Student's t-tests were performed in this study.

A549 cells [2] = experiment: Cell morphology and attachment of A549 cells cultured with TPZ on the array platform; format: cell-based, human; details: 48 hours
Method: In the experiments, 1 M NaOH and pyrogallol solutions with concentrations of 0, 190, and 500 μg ml^−1 at flow rates of […] were used to set the oxygen tensions inside the cell culture wells as normoxia (˜20%), 7.0%, and 1.4%, respectively, and the drug, TPZ, with concentrations of […] were applied. The cells were cultured under different conditions, including: 20% oxygen and 0 mM TPZ; 20% oxygen and 50 mM TPZ; and 1.4% oxygen and 50 mM TPZ, for 48 hours. […] Furthermore, the cell viability was checked using a live/dead stain solution containing calcein AM (1 mM) and ethidium homodimer-1 (2 mM) from LIVE/DEAD Viability/Cytotoxicity Kit (L3224, Invitrogen). The great viability (>95% by analyzing four fluorescence images taken in different cell culture wells using an image analysis software MetaMorph from Molecular Devices, Sunnyvale, Calif.) of the cells cultured under the control conditions for 48 hours confirmed the great cell compatibility of the multi-layer PDMS microfluidic device according to the invention. […] To quantitatively characterize the cell viabilities of A549 cells treated with TPZ under various oxygen tensions, the PrestoBlue cell viability assays were performed in the experiments. The developed microfluidic array platform can be directed placed into a microplate reader commonly used in biological labs for assay readout. […]

A 549 cells = experiment: Fluorescence-based cell viability in conventional 96-well plates with oxygen tension-controlled incubator, compared with the device; parameters: species or system human; details: 96-well plate, 48 hours, normoxia and hypoxia
Method: A comparison of cell viabilities under various drug treatments in normoxia and hypoxia conditions using the cell culture array platform according to the invention and conventional 96-well plates (167008, Nunclon DELTA Surface, Nunc) with an oxygen tension-controlled cell incubator (Heracell 240i, Thermo Scientific). In the well plate experiments, approximate 5000 A 549 cells were seeded into each well. The cells with 80 μl medium were incubated overnight in the cell incubator to ensure the cell attachment onto the wells before the drug treatments, and 20 μl drug solutions with various TPZ concentrations were than added into the wells. The cells were incubated with drug-contained medium for 48 hours. After the testing, the cell viabilities were estimated using the fluorescence-based cell viability assay, and read by the plate reader.

## Nc1n[n+]([O-])c2ccccc2[n+]1[O-] [TPZ, 3-amino-1,2,4-benzotriazine-1,4-dioxide]
In vitro
  cytotoxicity at 12 h: > 20%
A549 cells [1]
  normalized cell viability at 1.4% oxygen tension versus 7.0% oxygen tension: lower statistically than that for the 7.0% oxygen tension condition
A549 cells [1]; TPZ concentrations higher than 25 mM, normalized to normoxia without TPZ
  normalized cell viability, normoxia higher than low oxygen tensions (7.0% and 1.4%): more than 20%
A549 cells [2]; 1.4% oxygen and 50 mM TPZ
  cell morphology / attachment: more cells became rounded and detached from the substrate
A549 cells [2]; 20% oxygen and 50 mM TPZ
  cell morphology / attachment: the shapes of the cells became rounded and some cells detached from the substrate
A 549 cells
  hypoxia-activated cytotoxicity in well plates compared with the device: more hypoxia-activated cytotoxicity
